Experiments:
Pythium aphanidermatum = assay: Antimicrobial test (mycelia growth inhibition); assay type: cell-based; details: compound concentration of 1 ppm, PSY medium, 25° C., days 3 to 7 of culturing, read-out: mycelia growth inhibition rate
Protocol: The compound according to the present invention was dissolved in dimethylsulfoxide and diluted to double the prescribed concentration in a 96-well microplate using PSY medium to obtain a drug solution. On the other hand, a diluted dimethylsulfoxide solution was prepared using PSY medium for use as an untreated group.
A suspension of liquid-cultured test microorganisms (Pythium aphanidermatum) was mixed with an equal volume of the drug solution and cultured in a dark location at 25° C. Mycelia growth was observed on days 3 to 7 of culturing to determine mycelia growth inhibition rates.

[1] = system: tomato late blight pathogen (Phytophthora infestans); assay: whole plant or invertebrate; assay type: in vivo; details: 96 h, read-out: control value
Pythium ultimum = assay: Cucumber damping-off (PU) control test; assay type: in vivo; details: Globisporangium ultimum, 168 h, soil irrigated with 30 ml emulsion at active ingredient concentration of 100 ppm, ratio of healthy seedlings on day 7 after planting vs untreated group
Protocol: 40 ml of sterile soil were placed in plastic cups followed by leveling the surface of the soil. The soil was then irrigated with 30 ml of the aforementioned emulsion of Preparation Example 2 at an active ingredient concentration of 100 ppm. Following irrigation, cucumbers (variety: Sagami Hanjiro) were planted in the soil and covered with 20 ml of contaminated soil (containing Pythium ultimum) from above. The cups were then placed in plastic bags and allowed to stand undisturbed for 3 days in a constant temperature room at 25° C. (dark location […]). Next, the plants were removed from the bags and held in a constant temperature room at 25° C. using a light-dark cycle of 12 hours. On day 7 after planting, the ratios of healthy seedlings were compared between an untreated group and treated group to calculate control effects (control values).

Compound	inhibition at 1 ppm (Pythium aphanidermatum)	pest or weed control at 100 µg/mL [1]	pest or weed control at 100 ppm (Pythium ultimum)
Cn1nnnc1/C(=N\OCc1cccc(NC(=O)C2(C)OCCCO2)n1)c1ccccc1 [a-24, (Z)-(1-methyl-1H-tetrazol-5-yl)phenylmethanone-o-[2-(2-methyl-1,3-dioxan-2-yl-carbonylamino)pyridin-6-ylmethyl]oxime]	≥ 50%	≥ 70%	
Cn1nnnc1/C(=N\OCc1cccc(NC(=O)OC2CCC3(CC2)OCCO3)n1)c1ccccc1 [c-5]	≥ 50%	≥ 70%	≥ 50%
CCOC(OCC)C(=O)Nc1cccc(CO/N=C(/c2cccc(F)c2)c2nnnn2C)n1 [e-1]	≥ 50%	≥ 70%	
CCOC(OCC)C(C)C(=O)Nc1cccc(CO/N=C(/c2ccccc2)c2nnnn2C)n1 (stereo not shown) [a-20]	≥ 50%	≥ 70%	≥ 50%
CCOCCCC(C)(C)OC(=O)Nc1cccc(CO/N=C(/c2ccccc2)c2nnnn2C)n1 [d-9]	≥ 50%	≥ 70%	
CCCOC(C)(OCCC)C(=O)Nc1cccc(CO/N=C(/c2ccccc2)c2nnnn2C)n1 [a-29]	≥ 50%	≥ 70%	≥ 50%
Cn1nnnc1/C(=N\OCc1cccc(NC(=O)OC2(C)CCOCC2)n1)c1ccccc1 [d-6]	≥ 50%	≥ 70%	
CCOCC(C)(COCC)C(=O)Nc1cccc(CO/N=C(/c2ccccc2)c2nnnn2C)n1 [b-5]	≥ 50%		
CCOC(CCOC(=O)Nc1cccc(CO/N=C(/c2ccccc2)c2nnnn2C)n1)OCC [c-8]	≥ 50%	≥ 70%	≥ 50%
Cn1nnnc1/C(=N\OCc1cccc(NC(=O)C2(C)OCCCCCO2)n1)c1ccccc1 [a-27]	≥ 50%	≥ 70%	≥ 50%
Cn1nnnc1/C(=N\OCc1cccc(NC(=O)CC2OCCO2)n1)c1ccccc1 [a-7]	≥ 50%	≥ 70%	≥ 50%
CCOCC(COC(=O)Nc1cccc(CO/N=C(/c2ccccc2)c2nnnn2C)n1)OCC (stereo not drawn) [d-17]	≥ 50%	≥ 70%	≥ 50%
COCCC(C)(C)OC(=O)Nc1cccc(CO/N=C(/c2ccccc2)c2nnnn2C)n1 [d-10]		≥ 70%	≥ 50%
CCOC(OCC)C(=O)Nc1cccc(CO/N=C(/c2ccc(F)c(C)c2)c2nnnn2C)n1 [e-2]	≥ 50%	≥ 70%	
CCOC(C)(OCCOC)C(=O)Nc1cccc(CO/N=C(/c2ccccc2)c2nnnn2C)n1 (stereo not shown) [a-31]	≥ 50%	≥ 70%	≥ 50%
CCCOC(OCCC)C(=O)Nc1cccc(CO/N=C(/c2ccccc2)c2nnnn2C)n1 [a-9]	≥ 50%	≥ 70%	≥ 50%
COC(C)C(=O)Nc1cccc(CO/N=C(/c2ccccc2)c2nnnn2C)n1 (stereo not shown) [b-4]	≥ 50%		
Cn1nnnc1/C(=N\OCc1cccc(NC(=O)OCC2(C)COC(C)(C)OC2)n1)c1ccccc1 [c-3]	≥ 50%	≥ 70%	
Cn1nnnc1/C(=N\OCc1cccc(NC(=O)CC2OCC(C)(C)CO2)n1)c1ccccc1 [a-15]	≥ 50%	≥ 70%	
COCCCC(C)(C)OC(=O)Nc1cccc(CO/N=C(/c2ccccc2)c2nnnn2C)n1 [d-8]	≥ 50%	≥ 70%	≥ 50%
CCOC(COC(=O)Nc1cccc(CO/N=C(/c2ccccc2)c2nnnn2C)n1)OCC [c-10]	≥ 50%	≥ 70%	≥ 50%
CC(OC(=O)Nc1cccc(CO/N=C(/c2ccccc2)c2nnnn2C)n1)C1OCCCO1 (stereo not shown) [c-11]	≥ 50%	≥ 70%	
CCOCC(CCOC(=O)Nc1cccc(CO/N=C(/c2ccccc2)c2nnnn2C)n1)OCC (stereo not drawn) [d-18]	≥ 50%	≥ 70%	≥ 50%
CCOC(OCC)C(C)(C)C(=O)Nc1cccc(CO/N=C(/c2ccccc2)c2nnnn2C)n1 [a-21]		≥ 70%	≥ 50%
CC(C(=O)Nc1cccc(CO/N=C(/c2ccccc2)c2nnnn2C)n1)C1(C)OCCO1 (stereo not shown) [a-13]		≥ 70%	
COCCCOC(=O)Nc1cccc(CO/N=C(/c2ccccc2)c2nnnn2C)n1 [d-12]	≥ 50%	≥ 70%	

Compound	inhibition at 1 ppm (Pythium aphanidermatum)	pest or weed control at 100 µg/mL [1]	pest or weed control at 100 ppm (Pythium ultimum)
Cn1nnnc1/C(=N\OCc1cccc(NC(=O)CC2(C)OCCO2)n1)c1ccccc1 [a-16]		≥ 70%	
COC(CC(=O)Nc1cccc(CO/N=C(/c2ccccc2)c2nnnn2C)n1)OC [a-2, (Z)-(1-methyl-1H-tetrazol-5-yl)phenylmethanone-o-[2-(2,2-dimethoxyethanecarbonylamino)pyridin-6-ylmethyl]oxime]	≥ 50%	≥ 70%	≥ 50%
COC(C)(OC)C(=O)Nc1cccc(CO/N=C(/c2ccccc2)c2nnnn2C)n1 [a-19]	≥ 50%	≥ 70%	
COCCC(=O)Nc1cccc(CO/N=C(/c2ccccc2)c2nnnn2C)n1 [b-1]	≥ 50%	≥ 70%	
COCCOC(C)(OCCOC)C(=O)Nc1cccc(CO/N=C(/c2ccccc2)c2nnnn2C)n1 [a-32]		≥ 70%	
CCOC1(OC(=O)Nc2cccc(CO/N=C(/c3ccccc3)c3nnnn3C)n2)CC1 [d-2]		≥ 70%	
COC(COC(=O)Nc1cccc(CO/N=C(/c2ccccc2)c2nnnn2C)n1)OC [c-7, (Z)-(1-methyl-1H-tetrazol-5-yl)phenylmethanone-o-[2-(2,2-dimethoxyethoxycarbonylamino)pyridin-6-ylmethyl]oxime]	≥ 50%	≥ 70%	≥ 50%
Cn1nnnc1/C(=N\OCc1cccc(NC(=O)OCC2(C)COCOC2)n1)c1ccccc1 [c-2]	≥ 50%	≥ 70%	
CCOC(C)(OCC(F)(F)F)C(=O)Nc1cccc(CO/N=C(/c2ccccc2)c2nnnn2C)n1 (stereo not shown) [a-30]	≥ 50%	≥ 70%	≥ 50%
Cn1nnnc1/C(=N\OCc1cccc(NC(=O)OCC2CO2)n1)c1ccccc1 (stereo not drawn) [d-5]		≥ 70%	
CCOC(C)(OCC)C(=O)Nc1cccc(CO/N=C(/c2ccccc2)c2nnnn2C)n1 [a-18]		≥ 70%	≥ 50%
COC(CCC(=O)Nc1cccc(CO/N=C(/c2ccccc2)c2nnnn2C)n1)OC [a-17]	≥ 50%	≥ 70%	≥ 50%
COCCCCC(=O)Nc1cccc(CO/N=C(/c2ccccc2)c2nnnn2C)n1 [b-11]			≥ 50%
CC1OC(CC(=O)Nc2cccc(CO/N=C(/c3ccccc3)c3nnnn3C)n2)OC1C (stereo not shown) [a-12]	≥ 50%	≥ 70%	
CCOC(OCC)C(=O)Nc1cccc(CO/N=C(/c2ccccc2)c2nnnn2C)n1 [a-1]	≥ 50%	≥ 70%	≥ 50%
COC(CC(C)OC(=O)Nc1cccc(CO/N=C(/c2ccccc2)c2nnnn2C)n1)OC (stereo not shown) [c-6]	≥ 50%	≥ 70%	≥ 50%
CC(C)OC(OC(C)C)C(=O)Nc1cccc(CO/N=C(/c2ccccc2)c2nnnn2C)n1 [a-8]		≥ 70%	≥ 50%
COCCC(C)C(=O)Nc1cccc(CO/N=C(/c2ccccc2)c2nnnn2C)n1 (stereo not shown) [b-9]			≥ 50%
CCSC(SCC)C(=O)Nc1cccc(CO/N=C(/c2ccccc2)c2nnnn2C)n1 [a-22]	≥ 50%	≥ 70%	≥ 50%
CCOC(OCC)C(=O)Nc1ccc(Cl)c(CO/N=C(/c2ccccc2)c2nnnn2C)n1 [e-3]	≥ 50%	≥ 70%	
CCC1COC(CC(=O)Nc2cccc(CO/N=C(/c3ccccc3)c3nnnn3C)n2)O1 (stereo not shown) [a-11]	≥ 50%	≥ 70%	
Cn1nnnc1/C(=N\OCc1cccc(NC(=O)OC(C)(C)C2OCCCO2)n1)c1ccccc1 [c-12]	≥ 50%	≥ 70%	
Cn1nnnc1/C(=N\OCc1cccc(NC(=O)OC2(C)CCSCC2)n1)c1ccccc1 [d-7]		≥ 70%	
CC1COC(CC(=O)Nc2cccc(CO/N=C(/c3ccccc3)c3nnnn3C)n2)O1 (stereo not shown) [a-10]	≥ 50%	≥ 70%	
COCCCCOC(=O)Nc1cccc(CO/N=C(/c2ccccc2)c2nnnn2C)n1 [d-11]	≥ 50%	≥ 70%	
Cn1nnnc1/C(=N\OCc1cccc(NC(=O)C2(C)OCCO2)n1)c1ccccc1 [a-5]	≥ 50%		

Source: patent publication US9156816B2 (priority 2010, dated 2015)
